Measured values: patent EP0315434A2, “Pyridoxal hydrazone derivatives their production and use and pharmaceutical compositions containing the same” (YISSUM RESEARCH DEVELOPMENT COMPANY OF THE HEBREW …, priority 1987, dated 1989)

Legend:
[1] = Fate of ⁵⁹Fe tracer incubated with chelator and injected into normal rats (radioiron distribution and excretion); assay type: in vivo; conditions: for Radioiron Distribution in % Feces / Radioiron Distribution in % Total excretion / Radioiron Distribution in % Urine / Radioiron Distribution in % Blood / Radioiron Distribution in % Liver / Radioiron Distribution in % Spleen: 10 mg chelator with ⁵⁹Fe, subcutaneous, normal rats; for Radioiron Distribution in % Feces / Radioiron Distribution in % Total excretion / Radioiron Distribution in % Urine: cumulative within 4 days; for Radioiron Distribution in % Blood / Radioiron Distribution in % Liver / Radioiron Distribution in % Spleen: within 4 days; for TOTAL EXCRETION OF RADIO-IRON IN RATS %: as in Table 1
Protocol: Table 1 describes the fate of ⁵⁹Fe tracer reincubated […] with 10 mg of some of the above iron chelators and then injected subcutaneously to groups of 4 normal rats. Numbers represent mean cumulative radioiron excretion within 4 days of injection. For comparison, spontaneous excretion of radioiron and the excretion of desferrioxamine (DF) bound radioiron are also given. […]
Spleen and kidney were counted as whole organs.
(§1) The excretion of radioiron following ⁵⁹Fe labelling was measured in animals confined to solitary metabolic cages with stainless steel grid bottoms, and stool and urine were collected separately.

[2] = Mobilization of iron from hepatic parenchymal stores in hypertransfused rats labelled with ⁵⁹Fe-ferritin; assay type: in vivo; conditions: for Ferritin-⁵⁹Fe distribution in % Blood / Ferritin-⁵⁹Fe distribution in % Feces / Ferritin-⁵⁹Fe distribution in % Liver / Ferritin-⁵⁹Fe distribution in % Residual / Ferritin-⁵⁹Fe distribution in % Spleen / Ferritin-⁵⁹Fe distribution in % Urine: hypertransfused rats, 40 mg per animal, single subcutaneous injection
Protocol: In each case, 40 mg of each compound was administered per animal in a single subcutaneous injection.
In vivo studies of chelating efficiency were performed in two models: (a) normal rats injected i.p. with 10 mg of either desferrioxamine B (DF), PIH of the prior art, PPH of Example 4 or PPHE from Example 5 labelled in vitro with ⁵⁹Fe; and (b) hypertransfused rats receiving twice 4 ml/100gm packed RBC intravenously 5 and 3 days prior to study (hematocrit 68%) and labelled with ⁵⁹Fe-ferritin injected i.v. 24h prior to iron chelating therapy as described previously. Drugs to be tested in the ⁵⁹Fe-ferritin model were given either by i.p. injection or by gastric tube at a dose of 40 mg per animal. Radioiron excretion and organ distribution were determined after 4 days
The radioactivity of spleen, weighed portions of the liver, and 1 ml samples of blood were determined in an automatic well type scintillation counter (Packard Autogamma Model 5360 Scintillation spectrometer). Spleen and kidney were counted as whole organs.
as §1, with “Whole body counts were performed in a small animal counter (Packard Model 446 Armac) scintillation detector. The” for “The”

[3] = tested on: chloroquine-resistant strain of P. falciparum (FCR-3); conditions: molar concentration 2 x 10⁻⁶; cultured 3 days
Protocol: Cultures of a chloroquine-resistant strain of P. falciparum (FCR-3), cultivated in human erythrocytes (a technique widely used at the Kuvin Centre, Hebrew University Hadassah Medical School), were suspended in solutions containing chelators and then cultured for 3 days. Growth of parasites was determined by either slide counts or by incorporation of ³H-hypoxanthine. The parasite growth was monitored by microscopic slide counts. […]

[4] = target: T1, Ribonucleoside Diphosphate Reductase (RdR) (Homo sapiens, UniProt P31350); assay: Inhibition of ribonucleotide diphosphate reductase; assay type: biochemical
T1 sequence (P31350 1-389): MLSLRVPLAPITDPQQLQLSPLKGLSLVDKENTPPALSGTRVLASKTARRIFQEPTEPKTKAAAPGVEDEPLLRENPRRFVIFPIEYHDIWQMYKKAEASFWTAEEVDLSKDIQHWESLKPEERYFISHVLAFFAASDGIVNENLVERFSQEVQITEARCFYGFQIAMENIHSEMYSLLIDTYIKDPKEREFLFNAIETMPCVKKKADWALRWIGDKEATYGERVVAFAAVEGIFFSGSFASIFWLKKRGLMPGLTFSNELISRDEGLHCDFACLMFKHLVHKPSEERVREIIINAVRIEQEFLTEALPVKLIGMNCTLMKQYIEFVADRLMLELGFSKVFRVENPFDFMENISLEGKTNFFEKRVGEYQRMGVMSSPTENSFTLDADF

Leukemia P 388 = Leukemia P 388 survival in mice; assay type: in vivo, Mice: female B6D2F1; conditions: days 1, 2, 3, 4
Lewis lung carcinoma = assay: Inhibition of Lewis lung carcinoma (primary tumor and metastases); assay type: in vivo; conditions: dose 25 mg/kg
Source text: It becomes possible also to look at the ability of one of the compounds (Ex. 1) to inhibit the growth of Lewis lung carcinoma. With a view to possible mechanisms we employed the well-established anti-cancer antibiotics (a) bleomycin, and (b) daunorubicin, as reference compounds.

[5] = Iron chelation in H₂O (spectrophotometric, apparent K), ferrous ions; assay type: physicochemical; conditions: ferrous versus ferric

Molecule | Radioiron Distribution in % Feces [1] [%] | Radioiron Distribution in % Total excretion [1] [%] | Radioiron Distribution in % Urine [1] [%] | Radioiron Distribution in % Blood [1] [%] | Radioiron Distribution in % Liver [1] [%] | Radioiron Distribution in % Spleen [1] [%] | TOTAL EXCRETION OF RADIO-IRON IN RATS % [1] [%] | Ferritin-⁵⁹Fe distribution in % Blood [2] [%] | Ferritin-⁵⁹Fe distribution in % Feces [2] [%] | Ferritin-⁵⁹Fe distribution in % Liver [2] [%] | Ferritin-⁵⁹Fe distribution in % Residual [2] [%] | Ferritin-⁵⁹Fe distribution in % Spleen [2] [%] | Ferritin-⁵⁹Fe distribution in % Urine [2] [%] | INHIBITION OF GROWTH OF DRUG-RESISTANT STRAIN OF P. falciparum % INHIBITION [3] [%] | Inhibition of Ribonucleoside Diphosphate Reductase (RdR) % ([4]; dose 10 x 10⁻⁵ M) | further results
1-[N-ethoxycarbonylmethyl pyridoxylidenium] 2-[2′-pyridyl] hydrazine bromide [Ex. 3] | 57.2±1.1 | 86.7±1.7 | 29.5±0.6 | 6.4±0.4 | 3.3±0.4 | 0.16±0.04 | 86.7± 1.7 | 3.8±0.2 | 57.6±2.9 | 36.5±1.2 | 0 | 0.4±0.1 | 1.7±0.1 | 90.9 | none | efficiency as compared to the parenteral administration of the same drug ([2]; oral 40 mg versus parenteral): 31%; effectiveness relative to DF on a weight per weight basis ([2]; rat, in vivo): 3 times
1-[N-methylpyridoxylidenium]-2-[methyl pyridiniumn] hydrazine hydroxido iodide [Ex. 2] | 27.0±2.2 | 66.0±5.3 | 39.0±3.1 | 13.3±2.3 | 6.8±0.4 | 0.51±0.02 |  | 3.0±0.1 | 58.9±3.0 | 35.5±1.7 | 0 | 0.4±0.1 | 2.2±0.1 |  |  | 
Cc1c(O)c(C=NNC(=O)c2cc[n+](C)cc2)c(CO)c[n+]1C.[I-].[I-] [Comparative Compound B, 1-[N-methylpyridoxylidenium]-2-[N′-isonicotinoylium] hydrazine dimethiodide, reference compound] | 8.6±0.3 | 39.2±1.6 | 30.6±1.12 | 25.1±2.2 | 8.2±0.8 | 0.36±0.03 |  |  |  |  |  |  |  |  |  | 
COc1cccc2c1C(=O)c1c(O)c3c(c(O)c1C2=O)C[C@@](O)(C(C)=O)C[C@@H]3O[C@H]1C[C@H](N)[C@H](O)[C@H](C)O1 [Daunorubicin, daunorubicin, reference compound] |  |  |  |  |  |  |  |  |  |  |  |  |  |  |  | Survivors on Day 20 (Leukemia P 388; 1 mg/kg i.p.): 0/10; Activity T/C x 100 (Leukemia P 388; 1 mg/kg i.p., mean survival time treated / controls): 154
Cc1ncc(CO)c(C=NNc2ccccn2)c1O [Ex. 1] |  |  |  |  |  |  | 34.2 |  |  |  |  |  |  | 93.4 |  | Inhibition of Ribonucleoside Diphosphate Reductase (RdR) % ([4]; dose 6.7 x 10⁻⁵ M (20 µg/ml)): 72%; Inhibition of Lewis Carcinoma Metastases % (Lewis lung carcinoma): 41%; Inhibition of Lewis Carcinoma Primary Tumor % (Lewis lung carcinoma): 0%; Activity T/C x 100 (Leukemia P 388; 25 mg/kg i.p.): 105; Bodyweights Day 7-Day (g) (Leukemia P 388; 25 mg/kg i.p.): +2.6 g; Survivors on Day 20 (Leukemia P 388; 25 mg/kg i.p.): 0/5; Activity T/C x 100 (Leukemia P 388; 37.5 mg/kg i.p.): 110; Bodyweights Day 7-Day (g) (Leukemia P 388; 37.5 mg/kg i.p.): +0.2 g; Survivors on Day 20 (Leukemia P 388; 37.5 mg/kg i.p.): 0/5; Bodyweights Day 7-Day (g) (Leukemia P 388; 50 mg/kg i.p.): +0.8 g; Survivors on Day 20 (Leukemia P 388; 50 mg/kg i.p.): 0/5; Activity T/C x 100 (Leukemia P 388; 50 mg/kg i.p., P<0.05 (Mann-Whitney Test)): 126(xxx); Activity T/C x 100 (Leukemia P 388; 75 mg/kg i.p.): Toxic^(xx); Bodyweights Day 7-Day (Leukemia P 388; 75 mg/kg i.p.): -0.6 g; Survivors on Day 20 (Leukemia P 388; 75 mg/kg i.p.): 0/5
Cc1ncc(CO)c(C=NNc2ncccn2)c1O [Ex. 4] |  |  |  |  |  |  |  |  |  |  |  |  |  |  | 40% | higher affinity for ferrous than for ferric ions [5]: ~30 fold; Inhibition of Ribonucleoside Diphosphate Reductase (RdR) % ([4]; dose 1 x 10⁻⁵ M): 30%; Inhibition of Ribonucleoside Diphosphate Reductase (RdR) % ([4]; dose 100 x 10⁻⁵ M): 78%
